Laboratory results from ChEMBL document CHEMBL5614381, “Farnesyl pyrophosphate synthase inhibitors with antiosteoporosis efficacy in ovariectomized rats: A mixed binding approach beyond bisphosphonates” (Eur J Med Chem, 2024).
Activity calls are given as the source filed them. The calls are words filed in the database; no cut-off is given here.

Experiments:
[1] = biological target: T1, Farnesyl pyrophosphate synthase (Homo sapiens, UniProt P14324); test: Inhibition of human recombinant FPPS using IPP as substrate preincubated with enzyme for 15 mins followed by substrate addition and measured after 1 hr
T1 sequence (P14324 whole entry): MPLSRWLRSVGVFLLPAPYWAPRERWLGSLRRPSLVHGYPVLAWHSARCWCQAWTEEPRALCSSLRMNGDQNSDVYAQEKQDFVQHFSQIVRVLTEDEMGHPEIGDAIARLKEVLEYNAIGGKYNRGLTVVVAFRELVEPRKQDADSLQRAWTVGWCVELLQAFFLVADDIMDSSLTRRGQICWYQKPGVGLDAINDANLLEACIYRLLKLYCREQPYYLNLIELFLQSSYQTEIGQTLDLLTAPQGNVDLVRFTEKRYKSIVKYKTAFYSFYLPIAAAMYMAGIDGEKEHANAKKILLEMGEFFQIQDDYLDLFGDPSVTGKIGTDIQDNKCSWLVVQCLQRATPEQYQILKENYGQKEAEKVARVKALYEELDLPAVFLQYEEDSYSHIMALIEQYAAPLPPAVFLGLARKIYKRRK

Rattus norvegicus [2] = test: Anti-osteoporosis activity against ovariectomized Wistar rat assessed as inhibition of ovariectomy-induced osteoporosis by measuring increase in bone mineral content at 10 mg/kg, po administered daily for 8 weeks following bilateral ovariectomy; type: functional, organism-based
Rattus norvegicus [3] = test: Anti-osteoporosis activity against ovariectomized Wistar rat assessed as inhibition of ovariectomy-induced osteoporosis by measuring decrease in serum phosphate level at 1 mg/kg, po administered daily for 8 weeks following bilateral ovariectomy; type: functional, organism-based
Rattus norvegicus [4] = test: (§1) Anti-osteoporosis activity against ovariectomized Wistar rat assessed as inhibition of ovariectomy-induced osteoporosis by measuring increase in serum OPG level at 10 mg/kg, po administered daily for 8 weeks following bilateral ovariectomy relative to ovariectomized control; type: functional; set-up: scale not given: the % may be the effect or the level left
Rattus norvegicus [5] = test: Anti-osteoporosis activity against ovariectomized Wistar rat assessed as inhibition of ovariectomy-induced osteoporosis by measuring reduction in serum RANKL/OPG level at 10 mg/kg, po administered daily for 8 weeks following bilateral ovariectomy relative to ovariectomized control; type: functional; conditions: 1344 h
Rattus norvegicus [6] = test: Anti-osteoporosis activity against ovariectomized Wistar rat assessed as inhibition of ovariectomy-induced osteoporosis by measuring serum estradiol level at 0.1 to 10 mg/kg, po administered daily for 8 weeks following bilateral ovariectomy; type: functional, organism-based; conditions: dose 0.1-10 mg/kg
Rattus norvegicus [7] = test: Anti-osteoporosis activity against ovariectomized Wistar rat assessed as inhibition of ovariectomy-induced osteoporosis by measuring fold increase in serum osteoclacin level at 1 to 10 mg/kg, po administered daily for 8 weeks following bilateral ovariectomy relative to ovariectomized control; type: functional; conditions: dose 1-10 mg/kg
Rattus norvegicus [8] = test: Anti-osteoporosis activity against ovariectomized Wistar rat assessed as inhibition of ovariectomy-induced osteoporosis by measuring reduction in serum RANKL level at 0.1 to 10 mg/kg, po administered daily for 8 weeks following bilateral ovariectomy; type: functional, organism-based; conditions: dose 0.1-10 mg/kg
Rattus norvegicus [9] = test: Anti-osteoporosis activity against ovariectomized Wistar rat assessed as inhibition of ovariectomy-induced osteoporosis by measuring decrease in urinary phosphate level at 0.1 to 10 mg/kg, po administered daily for 8 weeks following bilateral ovariectomy; type: functional, organism-based; conditions: dose 0.1-10 mg/kg
Rattus norvegicus [10] = test: as §1, with “decrease in bone-specific isoenzyme of alkaline phosphatase level” for “increase”, “serum” for “serum OPG level”, “to” for “to ovariectomized”; type: functional; conditions: 1344 h
Rattus norvegicus [11] = test: Anti-osteoporosis activity against ovariectomized Wistar rat assessed as inhibition of ovariectomy-induced osteoporosis by measuring decrease in urinary calcium level at 1 mg/kg, po administered daily for 8 weeks following bilateral ovariectomy; type: functional, organism-based
Rattus norvegicus [12] = test: Anti-osteoporosis activity against ovariectomized Wistar rat assessed as inhibition of ovariectomy-induced osteoporosis by measuring increase in bone mineral density at 1 mg/kg, po administered daily for 8 weeks following bilateral ovariectomy; type: functional, organism-based
Rattus norvegicus [13] = test: Anti-osteoporosis activity against ovariectomized Wistar rat assessed as inhibition of ovariectomy-induced osteoporosis by measuring decrease in urinary phosphate level at 7.5 ug/kg, ip administered once a week for 8 weeks following bilateral ovariectomy; type: functional, organism-based; conditions: dose 7.5 µg/kg
Rattus norvegicus [14] = test: Anti-osteoporosis activity against ovariectomized Wistar rat assessed as inhibition of ovariectomy-induced osteoporosis by measuring serum estradiol level at 7.5 ug/kg, ip administered once a week for 8 weeks following bilateral ovariectomy; type: functional, organism-based; conditions: dose 7.5 µg/kg
Rattus norvegicus [15] = test: Anti-osteoporosis activity against ovariectomized Wistar rat assessed as inhibition of ovariectomy-induced osteoporosis by measuring decrease in serum phosphate level at 7.5 ug/kg, ip administered once a week for 8 weeks following bilateral ovariectomy; type: functional, organism-based; conditions: dose 7.5 µg/kg
Rattus norvegicus [16] = test: Anti-osteoporosis activity against ovariectomized Wistar rat assessed as inhibition of ovariectomy-induced osteoporosis by measuring decrease in serum calcium level at 7.5 ug/kg, ip administered once a week for 8 weeks following bilateral ovariectomy; type: functional, organism-based; conditions: dose 7.5 µg/kg
Rattus norvegicus [17] = test: Anti-osteoporosis activity against ovariectomized Wistar rat assessed as inhibition of ovariectomy-induced osteoporosis by measuring reduction in serum RANKL/OPG level at 7.5 ug/kg, ip administered once a week for 8 weeks following bilateral ovariectomy relative to ovariectomized control; type: functional; conditions: 1344 h, dose 7.5 µg/kg
Rattus norvegicus [18] = test: Anti-osteoporosis activity against ovariectomized Wistar rat assessed as inhibition of ovariectomy-induced osteoporosis by measuring increase in serum OPG level at 7.5 ug/kg, ip administered once a week for 8 weeks following bilateral ovariectomy relative to ovariectomized control; type: functional; set-up: scale not given: the % may be the effect or the level left; conditions: dose 7.5 µg/kg
Rattus norvegicus [19] = test: Anti-osteoporosis activity against ovariectomized Wistar rat assessed as inhibition of ovariectomy-induced osteoporosis by measuring decrease in bone-specific isoenzyme of alkaline phosphatase level in serum at 7.5 ug/kg, ip administered once a week for 8 weeks following bilateral ovariectomy; type: functional, organism-based; conditions: dose 7.5 µg/kg
Rattus norvegicus [20] = test: Anti-osteoporosis activity against ovariectomized Wistar rat assessed as inhibition of ovariectomy-induced osteoporosis by measuring decrease in urinary calcium level at 7.5 ug/kg, ip administered once a week for 8 weeks following bilateral ovariectomy; type: functional, organism-based; conditions: dose 7.5 µg/kg
Rattus norvegicus [21] = test: Anti-osteoporosis activity against ovariectomized Wistar rat assessed as inhibition of ovariectomy-induced osteoporosis by measuring reduction in serum RANKL level at 7.5 ug/kg, ip administered once a week for 8 weeks following bilateral ovariectomy; type: functional, organism-based; conditions: dose 7.5 µg/kg
Rattus norvegicus [22] = test: Anti-osteoporosis activity against ovariectomized Wistar rat assessed as inhibition of ovariectomy-induced osteoporosis by measuring increase in serum osteoclacin level at 7.5 ug/kg, ip administered once a week for 8 weeks following bilateral ovariectomy relative to ovariectomized control; type: functional; set-up: scale not given: the % may be the effect or the level left; conditions: dose 7.5 µg/kg

COc1cc(C2SP(=S)(Sc3ccccc3)S2)ccc1OCCOc1ccc(C2SP(=S)(Sc3ccccc3)S2)cc1OC (stereo unspecified) was tested, and the IC50 [1] was 3.37 µM.

For COc1cc(/C=C/C#N)ccc1OCCOc1ccc(/C=C/C#N)cc1OC, the IC50 [1] was 3.22 µM.

Work on COc1cc(C(O)P(=O)(OC)OC)ccc1OCCOc1ccc(C(O)P(=O)(OC)OC)cc1OC (stereo unspecified) yielded an IC50 [1] of 21.4 µM.

With COC(=O)/C=C/c1ccc(OCCOc2ccc(/C=C/C(=O)OC)cc2OC)c(OC)c1 the IC50 [1] was 1.24 µM.

Compound CCOC(=O)/C=C/c1ccc(OCCOc2ccc(/C=C/C(=O)OCC)cc2OC)c(OC)c1 has an IC50 [1] of 5.98 µM.

COc1cc(C(O)P(=O)(N(C)C)N(C)C)ccc1OCCOc1ccc(C(O)P(=O)(N(C)C)N(C)C)cc1OC (stereo unspecified) gave an IC50 [1] of 5.54 µM.

COc1cc(/C=C/C(C)=O)ccc1OCCOc1ccc(/C=C/C(C)=O)cc1OC was tested, and the Activity (Rattus norvegicus [2]) was “Active”, the Activity (Rattus norvegicus [3]) was “Active” and the Activity (Rattus norvegicus [4]) was 29%. For the same compound, the inhibition in vivo at 10 mg/kg (Rattus norvegicus [5]) was 33.3%, the Activity (Rattus norvegicus [6]) was “inactive” and the “fold change (FC)” value (Rattus norvegicus [7]) was 2. For the same compound, the Activity (Rattus norvegicus [8]) was “inactive”, the Activity (Rattus norvegicus [9]) was “Active” and the IC50 [1] was 1.11 µM. The inhibition in vivo at 10 mg/kg (Rattus norvegicus [10]) was 33%, the Activity (Rattus norvegicus [11]) was “Active” and the Activity (Rattus norvegicus [12]) was “Active”.

COc1cc(C=S)ccc1OCCOc1ccc(C=S)cc1OC was tested, and the IC50 [1] was 22.7 µM.

With O=P(O)(O)C(O)(Cn1ccnc1)P(=O)(O)O [ZOLEDRONIC ACID ANHYDROUS] the Activity (Rattus norvegicus [13]) was “Active”, the Activity (Rattus norvegicus [14]) was “inactive” and the Activity (Rattus norvegicus [15]) was “Active”. For the same compound, the Activity (Rattus norvegicus [16]) was “Active”, the inhibition in vivo at 0.0075 mg/kg (Rattus norvegicus [17]) was 38% and the Activity (Rattus norvegicus [18]) was 46%. The Activity (Rattus norvegicus [19]) was “Active”, the Activity (Rattus norvegicus [20]) was “inactive” and the Activity (Rattus norvegicus [21]) was “inactive”. It also gave an Activity (Rattus norvegicus [22]) of 174%.

COc1cc(C=O)ccc1OCCOc1ccc(C=O)cc1OC showed an IC50 [1] of 12.6 µM.

For CCN(CC)P(=O)(C(O)c1ccc(OCCOc2ccc(C(O)P(=O)(N(CC)CC)N(CC)CC)cc2OC)c(OC)c1)N(CC)CC (stereo unspecified), the IC50 [1] was 2.47 µM.
